From patent US20100143500A1, “Methods and Compositions for Inhibiting GSK-3 In Glial Cell Related Disorders” (THE OHIO STATE UNIVERSITY RESEARCH FOUNDATION, priority 2006, published 2010)

Assays:
[1] = test system: three additional glioma cell lines and two human glioblastoma biopsies (X12 and X14)
Protocol: Spheroids from 6 glioma cell lines were grown in the presence of LiCl (10 mM or 20 mM).
Cell lines and chemicals. The U87 and U87ΔEGFR cell lines were provided by Dr. Webster Cavenee (Ludwig Institute for Cancer Research, La Jolla, Calif.). The human glioblastoma biopsies, X12 and X14 (from Dr. C. David James, Mayo Clinic, Rochester, Minn.), were maintained as flank tumors in nude mice as described (5). All cells were grown in DMEM with 10% FBS and 1% penicillin-streptomycin.

glioma cells = assay: propidium iodide exclusion and metabolic cell viability assays; format: cell-based; settings: under conditions that block cell motility
[2] = test system: U87 glioma cell spheroids; assay: U87 glioma spheroid invasion in collagen I matrix
Protocol: U87 control spheroid after 96 hours expansion in type I collagen with 20 mM NaCl.
Time course of U87 spheroid invasion, in the presence of increasing concentrations of LiCl. Measurements were taken daily over a period of four days.
Time course of spheroid expansion with 20 mM LiCl washed out from U87 spheres at 24 hour intervals. Subsequent expansion was monitored microscopically.
To investigate the role of GSK-3 in glioma invasion, experiments were carried out to examine the effects of lithium chloride (LiCl), a known inhibitor of GSK-3, on the invasion of U87 glioma cell spheroids embedded in a collagen I matrix.

[3] = target: T1, inositol monophosphatase (IMP) (Homo sapiens, UniProt P29218); settings: cited from earlier work
T1 sequence (P29218 1-277): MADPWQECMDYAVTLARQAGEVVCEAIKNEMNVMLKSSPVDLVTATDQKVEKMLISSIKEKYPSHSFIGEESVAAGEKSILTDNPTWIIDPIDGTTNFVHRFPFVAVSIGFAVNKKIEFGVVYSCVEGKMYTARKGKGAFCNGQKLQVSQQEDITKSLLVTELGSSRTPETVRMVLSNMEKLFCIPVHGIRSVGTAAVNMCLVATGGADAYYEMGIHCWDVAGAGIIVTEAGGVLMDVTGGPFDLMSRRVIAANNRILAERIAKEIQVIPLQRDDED

For `COc1ccc(CNC(=O)Nc2ncc([N+](=O)[O-])s2)cc1` [AR-A014418], the “spheroid expansion as a percentage of control spheres” value ([1]; X12 cells, 96 hours) was “dose dependent decrease in spheroid expansion”, the “spheroid invasion in further glioma cell lines and biopsies” value ([1]; panel of glioma cell lines, X12 and X14) was “observed in the full panel of cell lines” and the cytotoxicity (glioma cells) was “Minimal cytotoxicity”. The “spheroid expansion as a percentage of control spheres” value ([2]; U87 cells, 96 hours) was “dose dependent decrease in spheroid expansion”, the “invasion of glioma spheroids” value ([2]; U87 spheroids embedded in collagen I matrix) was “dose-dependent blockade of invasion” and the “reversibility of the invasion blockade” value ([2]; after removal of inhibitor, assay up to 96 hours) was “reversible”.
In the case of `O=C1NC(=O)C(c2ccccc2[N+](=O)[O-])=C1Nc1ccc(O)c(Cl)c1` [SB415286], the cytotoxicity (glioma cells) is reported as “Minimal cytotoxicity”.
For `CC(Oc1ccc(O)cc1)(P(=O)(O)O)P(=O)(O)O` [L-690, 330], the “potency as IMP inhibitor relative to lithium” value [3] is given as 1000 fold and the effect on invasion ([2]; concentrations as high as 400 μM) is given as “no effect on invasion”.
